Laboratory results from US20230151034A1 (COCRYSTAL PHARMA, INC., priority 2020, published 2023).
Read-outs that look alike come from different tables or passages of the source.

Tests used:
[1] = molecular target: HuNV GGII.4 Norovirus protease (Norovirus GII.4 (human norovirus genogroup II genotype 4), UniProt P54634); test: Norovirus protease FRET assay (HuNV GGII.4); format: biochemical; conditions: FRET protease assay, read-out: HuNV GGII.4 IC50
[2] = molecular target: SARS2 protease (Severe acute respiratory syndrome coronavirus 2, UniProt P0DTD1); test: SARS-CoV-2 protease inhibition assay (SARS2 FRET protease assay); format: biochemical
Procedure: (§1) Viral protease assays: The antiviral activities of inhibitors were determined by FRET (Fluorescence Resonance Energy Transfer) assay. Purified viral protease was incubated with the protease substrate peptide (Edans-DFHLQ/GP-Dabcyl) and inhibitor, and IC50 values were subsequently determined by the fluorescence signals.
The SARS2 FRET protease assay was performed in 20 mM HEPES-Na pH 7, 120 mM NaCl, 0.4 mM EDTA, 0.01% Triton, 5% glycerol, and 4 mM DTT. A self-quenching peptide substrate 5-FAM-TSA VLQ SGF RKK (5TAMRA)-NH2 was custom synthesized by Anaspec. Compounds were diluted in 3-fold serial dilutions to final concentrations of 20 μM to 1.0 nM. SARS2 protease was added to a final concentration of 25 nM, depending on the enzyme activity level, and the peptide substrate was added to a final concentration of 1.3 μM. The assay was incubated 30 minutes at 30° C. and read in a Perkin Elmer Envision with excitation at 473 nm and emission measurement at 519 nm.

[3] = molecular target: Norwalk GGI.1 Norovirus protease (Norovirus, UniProt Q83883); test: Noro-Norwalk FRET protease assay (Norwalk GGI.1); format: biochemical, Norwalk virus; conditions: FRET protease assay, read-out: Norwalk GGI.1 IC50
Procedure: as §1
The Noro-Norwalk FRET protease assay was performed in 50 mM HEPES-Na pH 8, 50 mM NaCl, 0.4 mM EDTA, 4% glycerol, and 6 mM DTT. A self-quenching peptide substrate [5-FAM]-[…]-[TAMRA] was custom synthesized by Anaspec. Compounds were diluted in 3-fold serial dilutions to final concentrations of 200 μM to 10.2 nM. Noro protease was added to a final concentration of 1-7 μM, depending on the enzyme activity level, and the peptide substrate was added to a final concentration of 10 μM. The assay was incubated 90 minutes at 37° C. and read in a Perkin Elmer Envision with excitation at 473 nm and emission measurement at 519 nm.

[4] = Table E, SARS-CoV-2 protease inhibition, read-out: IC50

Chain of Norwalk GGI.1 Norovirus protease (Q83883 1101-1281): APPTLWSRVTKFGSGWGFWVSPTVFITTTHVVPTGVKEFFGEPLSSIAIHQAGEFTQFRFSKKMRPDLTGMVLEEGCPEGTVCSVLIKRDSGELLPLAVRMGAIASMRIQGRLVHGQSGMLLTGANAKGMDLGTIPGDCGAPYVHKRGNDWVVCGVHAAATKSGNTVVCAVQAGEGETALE
Chain of HuNV GGII.4 Norovirus protease (P54634 1009-1189): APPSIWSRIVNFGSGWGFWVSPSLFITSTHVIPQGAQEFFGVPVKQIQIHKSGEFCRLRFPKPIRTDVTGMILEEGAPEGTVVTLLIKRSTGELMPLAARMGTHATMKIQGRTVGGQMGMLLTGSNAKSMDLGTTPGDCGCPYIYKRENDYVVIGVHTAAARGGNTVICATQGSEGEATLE

Question: What does the source list for `CCCCCCCC1CC/C=C/CC(C(=O)NC)C[C@@H](C(=O)N(C)OC)NC(=O)C(CC(C)C)NC(=O)O1` (single isomer, unassigned) [Compound B37]?
Answer: IC50 ([1]; Table D): > 200 µM; IC50 [2, 4]: > 200 µM; IC50 ([3]; Table D): > 200 µM

Question: For `CCOCCOCCN(C)C(=O)CC[C@H](NC(=O)C(CC1CCCCC1)NC(=O)OCc1cccc(Cl)c1)C(O)P(=O)(OCC)OCC` (stereo in doubt) [Compound A11, 3-Chlorobenzyl ((13S,16S)-17-cyclohexyl-13-((diethoxyphosphoryl)(hydroxy)methyl)-9-methyl-10,15-dioxo-3,6-dioxa-9,14-diazaheptadecan-16-yl)carbamate], which IC50 ([1]; Table C) is on record?
Answer: The IC50 was 114 µM.

Question: And the IC50 [2, 4]?
Answer: Its IC50 is > 200 µM.

Question: What about the IC50 ([3]; Table C) of the same compound?
Answer: Its IC50 is 133 µM.

Question: What does the source list for `CN(CCc1ccccc1)C(=O)CC[C@H](NC(=O)[C@H](CC1CCCCC1)NC(=O)OCc1cccc(Cl)c1)C(O)S(=O)(=O)O` (stereo in doubt) [Compound A114, Sodium (2S)-2-((S)-2-((((3-chlorobenzyl)oxy)carbonyl)amino)-3-cyclohexylpropanamido)-1-hydroxy-5-(methyl (phenethyl)amino)-5-oxopentane-1-sulfonate]?
Answer: IC50 ([1]; Table C): 12.1 µM; IC50 ([3]; Table C): 5.2 µM

Question: What does the source list for `O=C[C@H](CCC(=O)N1CCc2ccccc2CC1)NC(=O)[C@H](CC1CCCCC1)NC(=O)OCc1cccc(Cl)c1` (stereo in doubt) [Compound A118, 3-Chlorobenzyl ((S)-3-cyclohexyl-1-(((S)-1,5-dioxo-5-(1,2,4,5-tetrahydro-3H-benzo[d]azepin-3-yl)pentan-2-yl)amino)-1-oxopropan-2-yl)carbamate]?
Answer: IC50 ([1]; Table C): 74.2 µM; IC50 ([3]; Table C): 6.6 µM

Question: Which IC50 ([1]; Table C) does the source give for `O=C[C@H](CCC(=O)N1CCOc2ccccc2C1)NC(=O)[C@H](CC1CCCCC1)NC(=O)OCc1cccc(Cl)c1` [Compound A57, 3-Chlorobenzyl ((S)-3-cyclohexyl-1-(((S)-5-(2,3-dihydrobenzo[f][1,4]oxazepin-4(5H)-yl)-1,5-dioxopentan-2-yl)amino)-1-oxopropan-2-yl)carbamate] here?
Answer: Its IC50 is 2.6 µM.

Question: What about the IC50 ([3]; Table C) of the same compound?
Answer: Its IC50 is 2.3 µM.

Question: What does the source list for `CN(CCc1ccncc1)C(=O)CC[C@@H](C=O)NC(=O)[C@H](CC1CCCCC1)NC(=O)OCc1cccc(Cl)c1` [Compound A68, 3-Chlorobenzyl ((S)-3-cyclohexyl-1-(((S)-5-(methyl (2-(pyridin-4-yl)ethyl)amino)-1,5-dioxopentan-2-yl)amino)-1-oxopropan-2-yl) carbamate]?
Answer: IC50 ([1]; Table C): 16.7 µM; IC50 ([3]; Table C): 4.6 µM

Question: For `O=C[C@H](CCC(=O)N1CCCCc2ccccc21)NC(=O)[C@H](CC1CCCCC1)NC(=O)OCc1cccc(Cl)c1` [Compound A107, 3-Chlorobenzyl ((S)-3-cyclohexyl-1-(((S)-1,5-dioxo-5-(2,3,4,5-tetrahydro-1H-benzo[b]azepin-1-yl)pentan-2-yl)amino)-1-oxopropan-2-yl)carbamate], which IC50 ([1]; Table C) is on record?
Answer: Its IC50 is 200 µM.

Question: What about the IC50 ([3]; Table C) of the same compound?
Answer: Its IC50 is 39.6 µM.

Question: How did the IC50 ([1]; Table C) turn out when `O=C[C@H](CCC(=O)N1CCOCc2ccccc21)NC(=O)[C@H](CC1CCCCC1)NC(=O)OCc1cccc(Cl)c1` [Compound A108, 3-Chlorobenzyl ((S)-3-cyclohexyl-1-(((S)-5-(2,3-dihydrobenzo[e][1,4]oxazepin-1(5H)-yl)-1,5-dioxopentan-2-yl)amino)-1-oxopropan-2-yl)carbamate] was run?
Answer: Its IC50 is 13.4 µM.

Question: What about the IC50 ([3]; Table C) of the same compound?
Answer: Its IC50 is 8 µM.

Question: For `CCCCCCCC1CCC/C=C/CC2(CCNC2=O)C[C@@H]([C@H](O)P(=O)(OCC)OCC)NC(=O)[C@H](CC(C)C)NC1=O` (stereo partly drawn) [Compound B22, Diethyl ((1R)-((7S,10S,E)-13-heptyl-10-isobutyl-1,9,12-trioxo-2,8,11-triazaspiro[4.14]nonadec-17-en-7-yl)(hydroxy)methyl)phosphonate], which IC50 [2] is on record?
Answer: Its IC50 is > 200 µM.

Question: With `CCOP(=O)(OCC)C(O)[C@@H]1CC2(CC=CCCCC(Cc3ccccc3)C(=O)N[C@@H](CC(C)C)C(=O)N1)CCNC2=O` (stereo partly drawn) [Compound B23, Diethyl (((7S,10S)-13-benzyl-10-isobutyl-1,9,12-trioxo-2,8,11-triazaspiro[4.14]nonadec-17-en-7-yl)(hydroxy)methyl)phosphonate] as the compound, how does the IC50 [2, 4] read?
Answer: Its IC50 is 46.5 µM.

Question: `CC(C)C[C@@H]1NC(=O)C(Cc2ccccc2)CCCCCCCC2CC(NC1=O)C(O)N(C)C2=O` (stereo partly drawn) [Compound B24, (4S)-7-benzyl-18-hydroxy-4-isobutyl-17-methyl-2,5,17-triazabicyclo[13.3.1]nonadecane-3,6,16-trione] was tested. Which IC50 [2, 4] did it give?
Answer: Its IC50 is 188 µM.

Question: Which IC50 [2, 4] does the source give for `CCCC1CCCC/C=C/CC2CC(NC(=O)[C@H](CC(C)C)NC1=O)C(O)(C(=O)NC(C)C)N(C)C2=O` (stereo partly drawn) [Compound B26, (4S,E)-18-hydroxy-4-isobutyl-N-isopropyl-17-methyl-3,6,16-trioxo-7-propyl-2,5,17-triazabicyclo[13.3.1]nonadec-12-ene-18-carboxamide] here?
Answer: The IC50 was > 200 µM.

Question: Which IC50 [2, 4] does the source give for `CCOP(=O)(OCC)[C@H](O)[C@@H]1CC(C(=O)N(C)Cc2ccc(OC)cc2OC)C/C=C/CCC(Cc2ccccc2)OC(=O)N[C@@H](CC(C)C)C(=O)N1` (stereo partly drawn) [Compound B28, Diethyl ((1S)-((4S,7S,E)-15-benzyl-9-((2,4-dimethoxybenzyl)(methyl)carbamoyl)-4-isobutyl-2,5-dioxo-1-oxa-3,6-diazacyclopentadec-11-en-7-yl)(hydroxy)methyl)phosphonate] here?
Answer: Its IC50 is > 200 µM.

Question: How did the IC50 [2, 4] turn out when `CCO[N+]([O-])(OCC)[C@H](O)[C@H]1CC2(CCCCCCC(Cc3ccccc3)C(=O)N[C@@H](CC(C)C)C(=O)N1)CCNC2=O` (stereo partly drawn) [Compound B41] was run?
Answer: The IC50 was > 200 µM.

Question: `CC(C)C[C@@H]1NC(=O)OC(Cc2ccccc2)CCC=CCC(C(=O)N(C)C)C[C@@H](C(=O)C(=O)NC(C)C)NC1=O` (stereo partly drawn) [Compound B42, (4S,7S)-15-benzyl-4-isobutyl-7-(2-(isopropylamino)-2-oxoacetyl)-N,N-dimethyl-2,5-dioxo-1-oxa-3,6-diazacyclopentadec-11-ene-9-carboxamide] was tested. Which IC50 [2] did it give?
Answer: The IC50 was > 200 µM.

Question: `CCOP(=O)(OCC)C(O)[C@@H]1CC(C(=O)N(C)C)CCCCCC(Cc2ccccc2)OC(=O)N[C@@H](CC(C)C)C(=O)N1` (stereo partly drawn) [Compound B45, Diethyl (((4S,7S)-15-benzyl-9-(dimethylcarbamoyl)-4-isobutyl-2,5-dioxo-1-oxa-3,6-diazacyclopentadecan-7-yl)(hydroxy)methyl)phosphonate] was tested. Which IC50 [2, 4] did it give?
Answer: Its IC50 is > 200 µM.

Question: With `CCCCCCCC1CC/C=C/CC(C(=O)NC)C[C@@H](CO)NC(=O)[C@H](CC(C)C)NC(=O)O1` (stereo partly drawn) [Compound B63, (4S,7S,E)-15-heptyl-7-(hydroxymethyl)-4-isobutyl-N-methyl-2,5-dioxo-1-oxa-3,6-diazacyclopentadec-11-ene-9-carboxamide] as the compound, how does the IC50 [2, 4] read?
Answer: The IC50 was 30 µM.

Question: With `CCCCCCCC1CC/C=C/CC(C(=O)NC)C[C@@H](C(=O)N(C)OC)NC(=O)[C@H](CC(C)C)NC(=O)O1` (stereo partly drawn) [Compound B64, (4S,7S,E)-15-heptyl-4-isobutyl-N^7-methoxy-N^7,N^9-dimethyl-2,5-dioxo-1-oxa-3,6-diazacyclopentadec-11-ene-7,9-dicarboxamide] as the compound, how does the IC50 [2, 4] read?
Answer: The IC50 was > 200 µM.

Question: Which IC50 [2, 4] does the source give for `CCCCCCCC1CC/C=C\CC(C(=O)NC)C[C@@H](CO)NC(=O)[C@H](CC(C)C)NC1=O` (stereo partly drawn) [Compound B65, (2S,5S,Z)-13-heptyl-5-(hydroxymethyl)-2-isobutyl-N-methyl-3,14-dioxo-1,4-diazacyclotetradec-9-ene-7-carboxamide] here?
Answer: Its IC50 is > 200 µM.

Question: How did the IC50 [2, 4] turn out when `CCCCCCCC1CCCC/C=C/CC(C(=O)NC)C[C@@H](CO)NC(=O)[C@H](CC(C)C)NC1=O` (stereo partly drawn) [Compound B66, (2S,5S,E)-15-heptyl-5-(hydroxymethyl)-2-isobutyl-N-methyl-3,16-dioxo-1,4-diazacyclohexadec-9-ene-7-carboxamide] was run?
Answer: Its IC50 is > 200 µM.
